Values quoted from earlier work as cited in patent US12582620B2, “Oral solutions comprising lisdexamfetamine salts” (Adalvo Limited, priority 2019, dated 2026).

Experiments:
[1] = acidic versus alkaline conditions
[2] = not given; remark: listed apart in the source

Compound: C[C@@H](Cc1ccccc1)NC(=O)[C@@H](N)CCCCN [Lisdexamfetamine dimesylate, (2S)-2,6-diamino-N-[(1S)-1-methyl-2-phenylethyl] hexanamide dimethanesulfonate]
- Susceptibility to hydrolysis [1]: more hydrolysis-susceptible under alkaline conditions
- Change of solubility (increasing the pH from 8 to 13): modest reductions
- Solubility (physiologically relevant pH range (pH 1-8), saturated buffered aqueous solutions): highly soluble
- Solubility in water [2]: very soluble in water
